{"source": "patent US20100331233A1", "about": "“CRYSTAL OF XPA AND ERCC1 COMPLEX AND USES THEREOF” (priority 2007, published 2010)", "key": {"[1]": {"system": "NER activity in HeLa cell extracts", "experiment": "In vitro NER assay: excision of a 1,3-intrastrand cisplatin adduct from plasmid in HeLa cell extract with XPA peptide", "format": "biochemical"}, "[2]": {"biological_target": "T1, ERCC192-214 (Homo sapiens, UniProt P07992)", "T1 construct": "an ERCC1 central domain fragment consisting of amino acids 92-214 preceded by an N-terminal hexahistidine tag; made in house; host or cells: E. coli BL21(DE3), M9 minimal media with 15N-labeled NH4Cl", "T1 sequence (P07992 92-214)": "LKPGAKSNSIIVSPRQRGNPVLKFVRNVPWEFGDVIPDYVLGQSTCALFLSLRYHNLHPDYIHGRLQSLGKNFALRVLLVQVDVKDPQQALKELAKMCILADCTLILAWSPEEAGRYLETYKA", "experiment": "15N HSQC NMR chemical shift perturbation of 15N-labeled ERCC1", "format": "binding", "conditions": "15N HSQC spectrum of ERCC1-XPA complex; read-out: dissociation equilibrium constant implied by slow-exchange regime", "procedure": "FIG. 3 illustrates the binding of XPA67-80 in a shallow groove of ERCC1. (A) A comparison of the two dimensional HSQC spectra for ^15N-labeled ERCC192-214 in the presence and absence of an unlabeled XPA67-80 peptide. The ^15N HSQC spectra reveal significant chemical shift changes for some ERCC1 residues (labeled) in the absence or presence of unlabeled XPA67-80. (B) Combined average chemical shift perturbations are calculated as Δχave=[((Δχ1H)^2+(Δχ15N/5)^2)/2)]^1/2 for each backbone amide of ERCC1 and shown as a histogram.\nNMR experiments and determination of the structure of XPA-ERCC1 complex. All NMR data were acquired in the NMR Buffer described above. […] Backbone assignments of the free ERCC192-214 and ERCC1-XPA67-80 complex were performed using a standard set of triple-resonance experiments: HNCA/HN(CO)CA, HN(CA)CB/HN(COCA)CB and HNCO/HN(CA)CO.\nIdentification of the ERCC1 binding site in complex with XPA. The binding site for XPA on the surface of ERCC1 (FIG. 2B) was identified using two dimensional HSQC experiments. […] The ^15N HSQC spectrum of the ERCC1-XPA complex is consistent with a slow-exchange regime, implying a dissociation equilibrium constant below 1 μM for the complex. The XPA binding site on the ERCC1 central domain was identified using the backbone assignments for […] alone and in complex with XPA (see below). […]"}}, "note": "No end group written: not given here."}
{"sequence": "KIIDTGGGFILEEE [XPA67-80]", "values": [{"measurement": "NER activity at 92 μM peptide", "setting": "[1]; HeLa cell extract, 92 μM", "value": "completely abolishes NER activity"}, {"measurement": "effect on NER excision of the lesion-containing oligonucleotide", "setting": "[1]; HeLa cell free extract, plasmid with 1,3-cisplatin intrastrand crosslink, peptide 46 nM to 92 μM", "value": "inhibits the in vitro NER reaction"}, {"measurement": "Kd", "setting": "[2]", "value": "< 1000", "unit": "nM"}]}
